Experimental data from patent US8772480B2, “Inhibitors of PI3 kinase and/or mTOR” (priority 2009, dated 2014).
pIC50, pKi: −log10 of the molar value.

Columns and labels:
PI3Kα = PI3Kα (Homo sapiens (Human), UniProt P42336); conditions: read-out: PI3Kα AlphaScreen ® Ki
[1] = system: phosphorylation of Akt at Serine 473 in U87 MG cells; experiment: cells; conditions: Homo sapiens, U-87 MG, 2 h, read-out: U87Cell IC50, pAkt (Ser 473), U87 MG cells, two hours with compound

Sequence of PI3Kα (P42336 whole entry): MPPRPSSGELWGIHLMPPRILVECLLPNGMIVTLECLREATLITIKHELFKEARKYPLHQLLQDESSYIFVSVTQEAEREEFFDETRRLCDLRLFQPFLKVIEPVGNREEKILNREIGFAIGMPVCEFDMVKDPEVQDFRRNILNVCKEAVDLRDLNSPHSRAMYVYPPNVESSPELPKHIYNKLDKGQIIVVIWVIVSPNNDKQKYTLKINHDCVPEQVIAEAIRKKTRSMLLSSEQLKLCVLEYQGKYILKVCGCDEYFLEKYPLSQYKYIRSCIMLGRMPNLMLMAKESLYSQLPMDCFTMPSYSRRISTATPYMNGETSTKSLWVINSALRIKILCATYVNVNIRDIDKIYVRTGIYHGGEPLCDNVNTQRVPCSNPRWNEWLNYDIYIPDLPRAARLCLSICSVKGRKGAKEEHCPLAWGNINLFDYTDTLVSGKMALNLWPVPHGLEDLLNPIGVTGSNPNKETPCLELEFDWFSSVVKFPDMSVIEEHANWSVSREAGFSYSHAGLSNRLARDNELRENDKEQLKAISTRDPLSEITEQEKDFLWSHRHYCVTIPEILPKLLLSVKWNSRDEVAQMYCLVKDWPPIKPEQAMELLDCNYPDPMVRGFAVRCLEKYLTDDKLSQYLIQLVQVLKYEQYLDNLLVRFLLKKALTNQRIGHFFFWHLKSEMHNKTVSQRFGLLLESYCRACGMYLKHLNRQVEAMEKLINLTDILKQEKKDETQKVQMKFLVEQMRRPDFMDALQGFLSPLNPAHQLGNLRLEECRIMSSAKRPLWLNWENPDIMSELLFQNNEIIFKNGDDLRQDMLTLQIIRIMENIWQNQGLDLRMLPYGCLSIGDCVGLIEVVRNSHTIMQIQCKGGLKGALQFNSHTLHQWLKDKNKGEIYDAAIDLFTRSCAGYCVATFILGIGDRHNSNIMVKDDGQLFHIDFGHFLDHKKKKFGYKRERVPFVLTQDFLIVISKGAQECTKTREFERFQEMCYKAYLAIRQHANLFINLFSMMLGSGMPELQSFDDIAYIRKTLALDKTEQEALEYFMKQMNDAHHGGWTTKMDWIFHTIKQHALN
Sequence of PI3Kα (P27986 whole entry partner): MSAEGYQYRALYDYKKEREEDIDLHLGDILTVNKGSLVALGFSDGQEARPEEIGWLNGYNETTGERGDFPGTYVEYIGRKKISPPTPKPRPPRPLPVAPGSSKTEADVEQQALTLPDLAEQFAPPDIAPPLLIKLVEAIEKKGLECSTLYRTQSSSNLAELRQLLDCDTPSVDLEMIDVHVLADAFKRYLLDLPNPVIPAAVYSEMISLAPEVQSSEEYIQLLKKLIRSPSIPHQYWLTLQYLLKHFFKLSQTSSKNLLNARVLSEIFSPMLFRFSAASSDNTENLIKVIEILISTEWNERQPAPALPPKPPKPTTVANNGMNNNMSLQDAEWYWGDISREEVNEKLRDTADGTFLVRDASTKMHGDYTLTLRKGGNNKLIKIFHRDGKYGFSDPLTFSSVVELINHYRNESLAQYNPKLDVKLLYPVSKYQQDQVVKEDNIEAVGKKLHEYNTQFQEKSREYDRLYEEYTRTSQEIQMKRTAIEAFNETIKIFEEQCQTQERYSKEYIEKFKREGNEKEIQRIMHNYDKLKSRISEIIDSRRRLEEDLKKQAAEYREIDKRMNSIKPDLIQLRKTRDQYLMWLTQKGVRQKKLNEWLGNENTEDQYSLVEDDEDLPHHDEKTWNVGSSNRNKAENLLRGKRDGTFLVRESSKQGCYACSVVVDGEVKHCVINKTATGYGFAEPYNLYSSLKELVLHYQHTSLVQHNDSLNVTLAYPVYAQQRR

pKi (PI3Kα)	pIC50 [1]	Compound
7.47	7.34	COc1ccc(Nc2ncc([C@H](O)C(F)(F)F)cc2-c2nc(C)nc(N)n2)cn1 [Example 323, (S)-1-(5-(4-amino-6-methyl-1,3,5-triazin-2-yl)-6-(6-methoxypyridin-3-ylamino)pyridin-3-yl)-2,2,2-trifluoroethanol]
7.23	6.97	COc1ccc(Nc2ncc(C(N)C(F)(F)F)cc2-c2nc(C)nc(N)n2)cn1 (stereo not shown) [Example 324, 4-(5-(1-Amino-2,2,2-Trifluoroethyl)-2-(6-Methoxypyridin-3-Ylamino)Pyridin-3-yl)-6-Methyl-1,3,5-Triazin-2-Amine]
7.17	7.24	Cc1nc(N)nc(-c2cc(CN3CCN(S(C)(=O)=O)CC3)cnc2Nc2ccc3ccncc3c2)n1 [Example 326, N-(3-(4-Amino-6-Methyl-1,3,5-Triazin-2-yl)-5-((4-(Methylsulfonyl)Piperazin-1-yl)Methyl)Pyridin-2-yl)Isoquinolin-7-Amine]
7.16	6.84	COc1ncc(Nc2ncc(C(C)N)cc2-c2nc(C)nc(N)n2)cc1F (stereo not shown) [Example 327, 4-(5-(1-Aminoethyl)-2-(5-Fluoro-6-Methoxypyridin-3-Ylamino)Pyridin-3-yl)-6-Methyl-1,3,5-Triazin-2-Amine]
7.26	7.44	COCCOc1cnc(Nc2cnc(OC)c(NS(C)(=O)=O)c2)c(-c2nc(C)nc(N)n2)c1 [Example 336, N-(5-(3-(4-Amino-6-Methyl-1,3,5-Triazin-2-yl)-5-(2-Methoxyethoxy)Pyridin-2-Ylamino)-2-Methoxypyridin-3-yl)Methanesulfonamide]
7.01	7.68	COc1ncc(Nc2ncc(CN3CCOCC3)cc2-c2nc(C)nc(N)n2)cc1NS(C)(=O)=O [Example 337, N-(5-(3-(4-Amino-6-Methyl-1,3,5-Triazin-2-yl)-5-(Morpholinomethyl)Pyridin-2-Ylamino)-2-Methoxypyridin-3-yl)Methanesulfonamide]
8.30	7.34	Cc1nc(-c2cccnc2Nc2cnc(Cl)c(NS(C)(=O)=O)c2)c2nc[nH]c2n1 [Example 338, N-(2-Chloro-5-(3-(2-Methyl-9H-Purin-6-yl)Pyridin-2-Ylamino)Pyridin-3-yl)Methanesulfonamide]
8.40	7.85	Cc1nc(-c2cc(C(C)N3CCOCC3)cnc2Nc2cnc(Cl)c(NS(=O)(=O)N(C)C)c2)c2nc[nH]c2n1 (stereo not shown) [Example 340, N′-(2-Chloro-5-((3-(2-Methyl-9H-Purin-6-yl)-5-(1-(4-Morpholinyl)Ethyl)-2-Pyridinyl)Amino)-3-Pyridinyl)-N,N-Dimethylsulfamide]
7.72	7.77	COc1cc(Nc2ncc([C@@H](C)N3CCN(S(C)(=O)=O)CC3)cc2-c2nc(C)nc(N)n2)cnc1Cl [Example 341, (R)-4-(2-(6-Chloro-5-Methoxypyridin-3-Ylamino)-5-(1-(4-(Methylsulfonyl)Piperazin-1-yl)Ethyl)Pyridin-3-yl)-6-Methyl-1,3,5-Triazin-2-Amine]
7.60	8.10	COc1cc(Nc2ncc(C(C)(C)O)cc2-c2nc(C)nc(N)n2)cnc1Cl [Example 342, 2-(5-(4-Amino-6-Methyl-1,3,5-Triazin-2-yl)-6-(6-Chloro-5-Methoxypyridin-3-Ylamino)Pyridin-3-yl)Propan-2-ol]
8.30	7.85	COc1ncc(Nc2ncc(C3CCOCC3)cc2-c2nc(C)nc(N)n2)cc1F [Example 344, 4-(2-(5-Fluoro-6-Methoxypyridin-3-Ylamino)-5-(Tetrahydro-2H-Pyran-4-yl)Pyridin-3-yl)-6-Methyl-1,3,5-Triazin-2-Amine]
7.89	7.46	COc1ncc(Nc2ncc(C(C)(C)O)cc2-c2cc(N)nc(C)n2)cc1F [Example 345, 2-(5-(6-Amino-2-Methylpyrimidin-4-yl)-6-(5-Fluoro-6-Methoxypyridin-3-Ylamino)Pyridin-3-yl)Propan-2-ol]
6.42	< 5.00	COc1ncc(Nc2ncc(C(C)(C)C(=O)O)cc2-c2nc(C)nc(N)n2)cc1F [Example 346, 2-(5-(4-Amino-6-Methyl-1,3,5-Triazin-2-yl)-6-(5-Fluoro-6-Methoxypyridin-3-Ylamino)Pyridin-3-yl)-2-Methylpropanoic Acid]
7.12	6.97	COc1ncc(Nc2ncc(C(O)C(C)(C)O)cc2-c2nc(C)nc(N)n2)cc1F (stereo not shown) [Example 347, 1-(5-(4-Amino-6-Methyl-1,3,5-Triazin-2-yl)-6-(5-Fluoro-6-Methoxypyridin-3-Ylamino)Pyridin-3-yl)-2-Methylpropane-1,2-Diol]
7.23	7.89	COc1ncc(Nc2ncc(C(C)O)cc2-c2nc(C)nc(N)n2)cc1F (stereo not shown) [Example 349, 1-(5-(4-Amino-6-Methyl-1,3,5-Triazin-2-yl)-6-(5-Fluoro-6-Methoxypyridin-3-Ylamino)Pyridin-3-yl)Ethanol]
7.72	8.15	COc1cc(Nc2ncc(C(C)(C)O)cc2-c2nc(C)nc(N)n2)cnc1OC [Example 350, 2-(5-(4-Amino-6-Methyl-1,3,5-Triazin-2-yl)-6-(5,6-Dimethoxypyridin-3-Ylamino)Pyridin-3-yl)Propan-2-ol]
8.05	7.15	COc1ncc(Nc2ncc(C(OC(=O)c3cccc(Cl)c3)C(C)(C)O)cc2-c2nc(C)nc(N)n2)cc1F (stereo not shown) [Example 351, 1-(5-(4-Amino-6-Methyl-1,3,5-Triazin-2-yl)-6-(5-Fluoro-6-Methoxypyridin-3-Ylamino)Pyridin-3-yl)-2-Hydroxy-2-Methylpropyl 3-Chlorobenzoate]
7.92	7.43	COc1ncc(Nc2ncc(C(C)(C)O)cc2-c2nc(C)nc(N)n2)cc1C [Example 354, 2-(5-(4-Amino-6-Methyl-1,3,5-Triazin-2-yl)-6-(6-Methoxy-5-Methylpyridin-3-Ylamino)Pyridin-3-yl)Propan-2-ol]
7.85	7.08	COc1ncc(Nc2ncc(CN3CCN(C(=O)N(C)C(C)C)CC3)cc2-c2nc(C)nc(N)n2)cc1F [Example 357, 4-((5-(4-Amino-6-Methyl-1,3,5-Triazin-2-yl)-6-(5-Fluoro-6-Methoxypyridin-3-Ylamino)Pyridin-3-yl)Methyl)-N-Isopropyl-N-Methylpiperazine-1-Carboxamide]
8.70	8.00	COc1ncc(Nc2ncc([C@@H](C)N3CCN(S(C)(=O)=O)C[C@@H]3C)cc2-c2nc(C)nc(N)n2)cn1 [Example 362, 4-(2-(2-Methoxypyrimidin-5-Ylamino)-5-((R)-1-((S)-2-Methyl-4-(Methylsulfonyl)Piperazin-1-yl)Ethyl)Pyridin-3-yl)-6-Methyl-1,3,5-Triazin-2-Amine]
7.82	7.51	Cc1nc(N)nc(-c2cc([C@@H](C)N3CCN(S(C)(=O)=O)C[C@@H]3C)cnc2Nc2ccc(Cl)nc2)n1 [Example 363, 4-(2-(6-Chloropyridin-3-Ylamino)-5-((R)-1-((S)-2-Methyl-4-(Methylsulfonyl)Piperazin-1-yl)Ethyl)Pyridin-3-yl)-6-Methyl-1,3,5-Triazin-2-Amine]
8.30	8.15	COc1ncc(Nc2ncc(CN3CCN(S(C)(=O)=O)[C@H](C)C3)cc2-c2nc(C)nc(N)n2)cc1F [Example 364, (R)-4-(2-(5-Fluoro-6-Methoxypyridin-3-Ylamino)-5-((3-Methyl-4-(Methylsulfonyl)Piperazin-1-yl)Methyl)Pyridin-3-yl)-6-Methyl-1,3,5-Triazin-2-Amine]
6.57	6.93	COc1cnc(Nc2cnc(Cl)c(N)c2)c(-c2nc(C)nc(N)n2)c1 [Example 368, N5-(3-(4-Amino-6-Methyl-1,3,5-Triazin-2-yl)-5-Methoxypyridin-2-yl)-2-Chloropyridine-3,5-Diamine]
8.10	8.05	Cc1nc(N)nc(-c2cc(C(C)N3CCOCC3)cnc2Nc2cnc(Cl)c(NS(C)(=O)=O)c2)n1 (stereo not shown) [Example 369, N-(5-(3-(4-Amino-6-Methyl-1,3,5-Triazin-2-yl)-5-(1-Morpholinoethyl)Pyridin-2-Ylamino)-2-Chloropyridin-3-yl)Methanesulfonamide]
8.00	8.52	Cc1nc(N)nc(-c2cc(C(C)N3CCOCC3)cnc2Nc2cnc(Cl)c(NS(=O)(=O)N(C)C)c2)n1 (stereo not shown) [Example 370, N-(5-(3-(4-Amino-6-Methyl-1,3,5-Triazin-2-yl)-5-(1-Morpholinoethyl)Pyridin-2-Ylamino)-2-Chloropyridin-3-yl)-N,N-Dimethylaminosulfamide]
8.22	9.00	Cc1nc(N)nc(-c2cc([C@@H](C)N3CCOCC3)cnc2Nc2cnc(Cl)c(NS(=O)(=O)N(C)C)c2)n1 [Example 373, (R)—N-(5-(3-(4-Amino-6-Methyl-1,3,5-Triazin-2-yl)-5-(1-Morpholinoethyl)Pyridin-2-Ylamino)-2-Chloropyridin-3-yl)-N,N-Dimethylaminosulfamide]
7.82	8.15	Cc1nc(N)nc(-c2cc([C@H](C)N3CCOCC3)cnc2Nc2cnc(Cl)c(NS(=O)(=O)N(C)C)c2)n1 [Example 374, (S)—N-(5-(3-(4-Amino-6-Methyl-1,3,5-Triazin-2-yl)-5-(1-Morpholinoethyl)Pyridin-2-Ylamino)-2-Chloropyridin-3-yl)-N,N-Dimethylaminosulfamide]
6.82	6.76	Cc1nc(N)cc(-c2cccnc2Nc2cnc(Cl)c(NS(=O)(=O)N(C)C)c2)n1 [Example 375, N-(5-(3-(6-Amino-2-Methylpyrimidin-4-yl)Pyridin-2-Ylamino)-2-Chloropyridin-3-yl)-N,N-Dimethylaminosulfamide]

Compound	pKi (PI3Kα)	pIC50 [1]
Cc1nc(-c2cc(C(C)N3CCOCC3)cnc2Nc2cnc(Cl)c(NS(C)(=O)=O)c2)c2nc[nH]c2n1 (stereo not shown) [Example 339, N-(2-Chloro-5-(3-(2-Methyl-9H-Purin-6-yl)-5-(1-Morpholinoethyl)Pyridin-2-Ylamino)Pyridin-3-yl)Methanesulfonamide]	8.52	7.35
